Where two headings read alike, the source gives them in different places.
Experiments:
[1] = system: wheat brown rust fungus (Puccinia recondita); experiment: Effect of combined application for controlling wheat brown rust (Test Example 6); format: in vivo; conditions: single chemical
[2] = system: tomato late blight fungus (Phytophthora infestans); format: in vivo; conditions: single chemical
[3] = system: cucumber gray mold fungus (Botrytis cinerea); experiment: Effect of combined application for controlling cucumber gray mold (Test Example 8); format: in vivo; conditions: single chemical, from diameter of lesion
[4] = system: wheat powdery mildew fungus (Erysiphe graminis); experiment: Preventive activity on wheat powdery mildew (Test Example 1); format: in vivo; conditions: foliar application on wheat, wettable powder
[5] = system: wheat brown rust fungus (Puccinia recondita); experiment: Preventive activity on wheat brown rust (Test Example 2); format: in vivo; conditions: 10 ppm, foliar application on wheat, wettable powder
CD rats (female) = experiment: Oral acute toxicity test using rats (Test Example 3); conditions: for LC50 value: CD rats (female), single oral administration, suspended in tragacanth gum aqueous solution
Protocol: Each of the compound No. 2 and its racemate No. 2r was suspended in tragacanth gum aqueous solution and applied to CD rats (female) by single oral administration in a dosage of 300, 600, 1,200, 2,500 or 5,000 mg/kg to obtain its LC50 value.

[6] = system: wheat powdery mildew fungus (Erysiphe graminis f. sp. tritici); experiment: Effect of combined application for controlling wheat powdery mildew (Test Example 5); format: in vivo; conditions: single chemical

CCCN(CCOc1c(Cl)cc(Cl)cc1Cl)C(=O)n1ccnc1 [Known compound d, N-propyl-N-[2-(2,4,6-trichlorophenoxy)ethyl]imidazole-1-carboxamide]
Preventive value (%) ([1]; 2.4 ppm): 0% | Preventive value (%) ([1]; 12 ppm): 19% | Preventive value (%) ([2]; 0.2 ppm): 62% | Preventive value (%) ([2]; 1 ppm): 79% | Preventive value (%) ([2]; 5 ppm): 95%

O=[N+]([O-])c1cc(C(F)(F)F)c(Cl)c([N+](=O)[O-])c1Nc1ncc(C(F)(F)F)cc1Cl [Known compound f]
Preventive value (%) ([3]; 0.2 ppm): 52% | Preventive value (%) ([3]; 1 ppm): 68% | Preventive value (%) ([3]; 5 ppm): 98%

CNC(=O)C(=NOC)c1ccccc1C=NOC(C)c1cccc(C(F)(F)F)c1 (racemic) [2r, N-methyl-2-[2-{1-(3-trifluoromethylphenyl)ethoxyiminomethyl}phenyl]-2-methoxyiminoacetamide]
Preventive value (%) ([4]; 2.0 ppm): 64% | Preventive value (%) ([4]; 4.0 ppm): 96% | Preventive value [5]: 32 | LC50 value (CD rats (female)): 1,784 mg/kg | mortality (CD rats (female); single oral dosage of 300 mg/kg): no mortality | cases died (CD rats (female); single oral dosage of 600 mg/kg): 1/5 | cases died (CD rats (female); single oral dosage of 1,200 mg/kg): 1/5 | cases died (CD rats (female); single oral dosage of 2,500 mg/kg): 4/5 | cases died (CD rats (female); single oral dosage of 5,000 mg/kg): 4/5

CC(Cc1ccc(C(C)(C)C)cc1)CN1C[C@@H](C)O[C@@H](C)C1 (mixture of isomers) [Known compound c, (±)-cis-4-[3-(4-tert-butylphenyl)-2-methylpropyl]-2,6-dimethylmorpholine]
Preventive value (%) ([6]; 2.4 ppm): 18% | Preventive value (%) ([6]; 12 ppm): 50% | Preventive value (%) ([1]; 2.4 ppm): 0% | Preventive value (%) ([1]; 12 ppm): 0%

CC1(C)CCC(Cc2ccc(Cl)cc2)C1(O)Cn1cncn1 (racemic) [Known compound a, (1RS,5RS;1RS,5SR)-5-(4-chlorobenzyl)-2,2-dimethyl-1-(1H-1,2,4-triazol-1-ylmethyl)cyclopentanol]
Preventive value (%) ([6]; 0.2 ppm): 35% | Preventive value (%) ([6]; 1 ppm): 80% | Preventive value (%) ([1]; 0.2 ppm): 25% | Preventive value (%) ([1]; 1 ppm): 81%

CNC(=O)C(=NOC)c1ccccc1C=NO[C@H](C)c1cccc(C(F)(F)F)c1 (single isomer, unassigned) [compound 1]
Preventive value (%) ([4]; 2.0 ppm): 6% | Preventive value (%) ([4]; 4.0 ppm): 51% | Preventive value [5]: 0

CNC(=O)C(=NOC)c1ccccc1C=NO[C@@H](C)c1cccc(C(F)(F)F)c1 (single isomer, unassigned) [compound 2]
Preventive value (%) ([4]; 2.0 ppm): 97% | Preventive value (%) ([4]; 4.0 ppm): 100% | Preventive value [5]: 99 | Preventive value (%) ([6]; 0.2 ppm): 25% | Preventive value (%) ([6]; 1 ppm): 87% | Preventive value (%) ([1]; 0.2 ppm): 2% | Preventive value (%) ([1]; 1 ppm): 48% | Preventive value (%) ([2]; 0.4 ppm): 23% | Preventive value (%) ([2]; 2 ppm): 73% | Preventive value (%) ([2]; 10 ppm): 95% | Preventive value (%) ([3]; 0.4 ppm): 13% | Preventive value (%) ([3]; 2 ppm): 53% | Preventive value (%) ([3]; 10 ppm): 94% | LC50 value (CD rats (female)): ≥ 5,000 mg/kg

CC(C)(C)C(O)(CCc1ccc(Cl)cc1)Cn1cncn1 (racemic) [Known compound b, (RS)-1-p-chlorophenyl-4,4-dimethyl-3-(1H-1,2,4-triazol-1-ylmethyl)pentan-3-ol]
Preventive value (%) ([6]; 0.2 ppm): 23% | Preventive value (%) ([6]; 1 ppm): 65% | Preventive value (%) ([1]; 0.2 ppm): 22% | Preventive value (%) ([1]; 1 ppm): 75%
